Patent publication US20210137828A1, “Cannabidiol Sublingual Spray Formulations” (priority 2019, published 2021)

Assays:
non-cancer cells = conditions: compared with breast tumor cell lines; cited from earlier work
[1] = tested on: human experimental psychosis; conditions: cited from earlier work
toxin-induced vomiting = conditions: low doses; cited from earlier work
seizures = conditions: doses up to 25 milligrams per kilogram of body weight; cited from earlier work
[2] = tested on: chronic inflammatory and neuropathic pain; conditions: rodents; cited from earlier work
[3] = 700 milligrams per day for 6 weeks; cited from earlier work
anxiety = conditions: patients with social anxiety disorder; cited from earlier work
[4] = Impurity stability of CBD sublingual spray formulation; format: physicochemical; parameters: unit not given here
Protocol: Stability data was established for formulations with 25 mg/spray, 0.2% sucralose, 0.4% strawberry flavor, and 10% ethanol in the presence of MCT oil. […] This can be extrapolated to assigning a one year expiration at room temperature for lipid based formulation. See Table 1 through 2 for stability data of impurities and assay.

[5] = tested on: non-tumorigenic, mammary cells; conditions: at concentrations effective in tumor cells; cited from earlier work
[6] = tested on: estrogen receptor-positive and estrogen receptor-negative breast cancer cells; conditions: cited from earlier work
incidence of diabetes = conditions: non-obese diabetic mice, cited from earlier work
breast tumor cell lines = conditions: different breast tumor cell lines; cited from earlier work
[7] = tested on: vascular damage, vascular hyperpermeability; conditions: high glucose environment, inflammation or induction of type 2 diabetes in animal models; cited from earlier work
seizure frequency = conditions: cited from earlier work

## C=C(C)[C@@H]1CCC(C)=C[C@H]1c1c(O)cc(CCCCC)cc1O [CBD, cannabidiol]
non-cancer cells
  Potency in non-cancer cells: significantly less potency in non-cancer cells
[1]
  Effect on human experimental psychosis: prevents human experimental psychosis
toxin-induced vomiting
  Effect on toxin-induced vomiting: suppresses toxin-induced vomiting
seizures
  Tolerability: generally well-tolerated
[2]
  Analgesic tolerance: without causing analgesic tolerance
  Suppression of chronic inflammatory and neuropathic pain: significantly suppressed chronic inflammatory and neuropathic pain
[3]
  Overt toxicity in humans: did not show any overt toxicity
anxiety
  Effect on anxiety: reduce anxiety
[4]; T = 0
  CBD peak (RRT 1.00) in impurity stability data: 99.24
[4]; T = 2wk 25 C.
  CBD peak (RRT 1.00) in impurity stability data: 99.05
[4]; T = 2wk 40 C.
  CBD peak (RRT 1.00) in impurity stability data: 98.60
[4]; T = 4wk 25 C.
  CBD peak (RRT 1.00) in impurity stability data: 98.75
[4]; T = 4wk 40 C.
  CBD peak (RRT 1.00) in impurity stability data: 97.96
[5]
  Effect on non-tumorigenic mammary cells: little effect
[6]
  Cell death of breast cancer cells: induced a concentration-dependent cell death
Incidence of diabetes; 86 percent in non-treated mice
  Incidence of diabetes: 30%
Incidence of diabetes
  Insulitis, histological examination of pancreatic islets: significantly reduced insulitis
  Plasma levels of pro-inflammatory cytokines: significant reduction
Breast tumor cell lines
  Inhibition of growth of breast tumor cell lines: potently and selectively inhibited the growth
[7]
  Protection against vascular damage: protects against the vascular damage
Seizure frequency; 16 of 19 parents
  Parents reporting a reduction in their child's seizure frequency: 84%
Seizure frequency; eight of 19 parents
  Parents reporting greater than 80 percent reduction in seizure frequency: 42%
Seizure frequency; parent survey, children with epilepsy
  Side effects: drowsiness and fatigue
Seizure frequency; six of 19 parents
  Parents reporting 25-60 percent seizure reduction: 32%
Seizure frequency; two of 19 parents
  Parents reporting complete seizure freedom: 11%
